Reference: patent publication US5424326A, “Phenyl-1,2,5-oxadiazolecarboxamide-2-oxides, their preparation and their use” (Cassella Aktiengesellschaft, priority 1992, dated 1995)
Where two headings read alike, the source gives them in different places.

Test system: pulmonary artery of the guinea-pig
Test: relaxation of potassium-depolarised pulmonary artery strips of the guinea-pig (CaCl2-induced contraction)
Conditions: 40 mmol/l potassium, 0.5 mmol/l CaCl2, cumulative addition, average value of 4 to 6 vessel strips, read-out: IC50 (concentration which inhibits the contraction by 50%)
Protocol: In this method, spiral strips of the pulmonary artery of the guinea-pig are depolarised with 40 mmol/l of potassium after equiliberation in calcium-free Tyrode solution. An addition of 0.5 mmol/l of CaCl2 then induces a contraction.
The relaxing action of the test substance is determined by cumulative addition in 1/2 log 10 graded concentrations.

Row | Compound | IC50 (Cavia porcellus) | IC50
1 | CNC(=O)c1c(-c2ccccc2)no[n+]1[O-] [Compound 1a, N-Methyl-4-phenyl-1,2,5-oxadiazole-3-carboxamide-2-oxide] | 1000 nM | –
2 | O=C(NCc1cccnc1)c1c(-c2ccccc2)no[n+]1[O-] [Compound 7a] | 300 nM | –
3 | O=C(NCc1cccnc1)c1no[n+]([O-])c1-c1ccccc1 [Compound 7b] | 2000 nM | –
4 | NC(=O)CNC(=O)c1c(-c2ccccc2)no[n+]1[O-] [Compound 10a] | 1000 nM | –
5 | CC(C)N(CCNC(=O)c1no[n+]([O-])c1-c1ccccc1)C(C)C [Compound 12b] | 2000 nM | –
6 | COc1ccc(-c2no[n+]([O-])c2C(=O)NCCN(C(C)C)C(C)C)cc1OC [Compound 13a] | 300 nM | –
7 | O=C(NCc1ccncc1)c1c(-c2ccccc2)no[n+]1[O-] [Compound 14a] | 500 nM | –
8 | O=C(NCc1ccncc1)c1no[n+]([O-])c1-c1ccccc1 [Compound 14b] | 1000 nM | –
9 | O=[N+]([O-])OC1COC2C(O)COC12 (stereo not shown) [Isosorbide-5-mononitrate, reference compound] | > 100000 nM | –
10 | CCOC(=O)[N-]c1cn(N2CCOCC2)n[o+]1 [Molsidomine, reference compound] | 300000 nM | –
11 | N-(3-Diethylaminopropyl)-3-phenyl-1,2,5-oxadiazole-4-carboxamide-2-oxide [Compound 6a] | – | 400 nM
12 | N-Butyl-3-phenyl-1,2,5-oxadiazole-4-carboxamide-2-oxide [Compound 5a] | – | 700 nM
13 | N-Methyl-3-(3,4-dimethoxyphenyl)-1,2,5-oxadiazole-4-carboxamide-2-oxide [Compound 4a] | – | 5000 nM
